Assay results reported in patent publication US6806276B2, “2-oxoquinoline compounds and pharmaceutical uses thereof” (Japan Tobacco Inc., priority 1999, dated 2004).
Read-outs that look alike come from different tables or passages of the source.

Experiments:
[1] = target: T1, human peripheral type cannabinoid receptor (hCB2) (Homo sapiens, UniProt P34972); assay: Binding assay (in vitro), [3H]Win55212-2 displacement, membrane fractions of human CB2-CHO; details: for Ki: hCB2 expressed in CHO cells, [3H]Win55212-2 2 nM, 30° C. 90 minutes; for C/S (Ki central type receptors / Ki peripheral type receptors): indicator of selectivity for peripheral type receptors
T1 construct: expressed in transfected cells; host or cells: CHO cells
T1 sequence (P34972 whole entry): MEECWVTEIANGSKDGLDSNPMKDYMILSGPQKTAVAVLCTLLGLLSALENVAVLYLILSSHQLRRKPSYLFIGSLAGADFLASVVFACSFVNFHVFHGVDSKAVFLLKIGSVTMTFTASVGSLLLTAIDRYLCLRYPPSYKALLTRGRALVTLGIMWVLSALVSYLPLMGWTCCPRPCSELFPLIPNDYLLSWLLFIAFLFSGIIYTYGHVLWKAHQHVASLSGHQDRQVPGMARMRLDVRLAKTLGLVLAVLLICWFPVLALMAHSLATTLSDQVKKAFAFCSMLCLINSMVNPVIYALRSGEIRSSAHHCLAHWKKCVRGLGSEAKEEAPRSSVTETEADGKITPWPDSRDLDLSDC
Method: (§1) Membrane fractions of human central type cannabinoid receptor (human CB1-CHO, hereinafter called hCB1) and human peripheral type cannabinoid receptor (human CB2-CHO, hereinafter called hCB2) expressed in CHO cells were used as samples. The reference material (hCB1: 20 μg/ml, hCB2: 5 μg/ml), labeled ligand ([^3H]Win55212-2, 2 nM) and unlabeled ligand Win55212-2 or test compound were added to a 24-well round bottom plate, and the plate was incubated at 30° C. for 90 minutes. 50 mM Tris-HB55 containing 0.2% BSA was used as an assay buffer. After incubation, the mixture was filtered (Packard, Unifilter 24GF/B) and dried, and then a scintillation solution (Packard, Microsint-20) was added thereto to determine the radioactivity of the sample (Packard, Top count A9912V). Nonspecific binding was determined by the addition of excessive amount of Win55212-2 (10 μM), and specific binding was calculated by subtracting the nonspecific binding from total binding determined by the addition of the labeled ligand only. The test compound was dissolved in DMSO to make the final concentration in DMSO to be 0.1%. IC50 value was determined from the proportion of the bound test compound in the specific binding, and K1 value of the test compound was calculated from the ICso value and Kd value of [^3H]Win55212-2. K1 value for the central type receptors/K1 value for peripheral type receptors (C/S) was also calculated as an indicator of the selectivity of the test compound for peripheral type receptors.

[2] = system: carrageenin-induced paw edema; assay: Carrageenin-induced paw edema model (in vivo); parameters: species or system C57BL/6J mice; details: mice, oral in olive oil 1 hour before carrageenin, paw volume 3 hours later
Method: [2] Carrageenin-induced paw edema model (in vivo)
C57BL/6J mice (6 to 8 weeks of age) were used. […] After one hour of the administration, 50 μl of 1% solution of carrageenin in normal saline was administered intradermally at foot pad of the right hind paw. Three hours later, the volume of the right hind paw was measured and compared with the initial volume.

[3] = target: T2, human central type cannabinoid receptor (hCB1) (Homo sapiens, UniProt P21554); assay: Binding assay (in vitro), [3H]Win55212-2 displacement, membrane fractions of human CB1-CHO; details: hCB1 expressed in CHO cells, [3H]Win55212-2 2 nM, 30° C. 90 minutes; read-out: Ki value Central type receptor (C)
T2 construct: expressed in transfected cells; host or cells: CHO cells
T2 sequence (P21554 whole entry): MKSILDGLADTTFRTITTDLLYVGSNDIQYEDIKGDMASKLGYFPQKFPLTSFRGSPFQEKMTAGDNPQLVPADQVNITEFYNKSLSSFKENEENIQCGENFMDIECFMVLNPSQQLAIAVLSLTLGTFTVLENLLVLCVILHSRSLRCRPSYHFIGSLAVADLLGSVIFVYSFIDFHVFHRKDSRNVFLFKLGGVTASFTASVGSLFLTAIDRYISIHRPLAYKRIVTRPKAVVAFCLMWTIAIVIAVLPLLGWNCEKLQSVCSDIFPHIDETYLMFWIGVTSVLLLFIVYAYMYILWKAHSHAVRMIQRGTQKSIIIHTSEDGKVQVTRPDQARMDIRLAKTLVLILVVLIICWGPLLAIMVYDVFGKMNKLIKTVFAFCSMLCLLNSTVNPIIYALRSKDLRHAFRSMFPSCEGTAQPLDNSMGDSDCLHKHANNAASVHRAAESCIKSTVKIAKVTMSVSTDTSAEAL
Method: as §1

[4] = Ki value Peripheral type receptor (S)
[5] = read-out: Ki value Peripheral type receptor (S)

Compound: CCCOc1c(OC)ccc2cc(C(=O)NCCc3ccccc3)c(=O)[nH]c12 [Example 3-30, 7-methoxy-2-oxo-8-propoxy-1,2-dihydroquinoline-3-carboxylic acid (2-phenylethyl)amide]
- Ki [1, 4]: 0.09 nM
- C/S (Ki central type receptors / Ki peripheral type receptors) [1]: 1862
- ED60 [2]: 0.49 mg/kg; p.o.

Compound: CCCCCOc1c(OC)ccc2cc(C(=O)NCCN3CCOCC3)c(=O)[nH]c12 [Example 3-11, 7-methoxy-2-oxo-8-pentyloxy-1,2-dihydroquinoline-3-carboxylic acid (2-morpholinoethyl)amide]
- ED50 [2]: 0.40 mg/kg; p.o.

Compound: CCCCCOc1c(OC)ccc2cc(C(=O)NCc3ccncc3)c(=O)[nH]c12 [Example 3-9, 7-methoxy-2-oxo-8-pentyloxy-1,2-dihydroquinoline-3-carboxylic acid (4-pyridyl methyl)amide]
- ED50 [2]: 0.58 mg/kg; p.o.

Compound: CCCCCOc1c(OC)ccc2cc(C(=O)NCc3ccc(F)cc3)c(=O)[nH]c12 [Example 3-25, 7-methoxy-2-oxo-8-pentyloxy-1,2-dihydroquinoline-3-carboxylic acid (4-fluorobenzyl)amide]
- Ki [3]: 444 nM
- Ki [1, 4]: 1.29 nM
- C/S (Ki central type receptors / Ki peripheral type receptors) [1]: 344

Compound: CCOc1c(OC)ccc2cc(C(=O)NCc3ccc4c(c3)OCO4)c(=O)[nH]c12 [Example 3-35, 8-ethoxy-7-methoxy-2-oxo-1,2-dihydroquinoline-3-carboxylic acid (3,4-methylenedioxybenzyl) amide]
- Ki [3]: 409 nM
- Ki [1, 4]: 0.053 nM
- C/S (Ki central type receptors / Ki peripheral type receptors) [1]: 7713

Compound: CCCCCOc1cc2cc(C(=O)NCc3ccc4c(c3)OCO4)c(=O)[nH]c2cc1OC [Example 3-33, 7-methoxy-2-oxo-6-pentyloxy-1,2-dihydroquinoline-3-carboxylic acid (3,4-methylenedioxybenzyl)amide]
- Ki [3]: 273 nM
- Ki [1, 4]: 1.06 nM
- C/S (Ki central type receptors / Ki peripheral type receptors) [1]: 258

Compound: CCCCCOc1c(OC)ccc2cc(C(=O)O)c(=O)[nH]c12 [Example 2-1, 7-methoxy-2-oxo-8-pentyloxy-1,2-dihydroquinoline-3-carboxylic acid]
- Ki [3]: 4330 nM
- Ki [1, 5]: 8.9 nM
- C/S (Ki central type receptors / Ki peripheral type receptors) [1]: 487

Compound: CCCCOc1c(OC)ccc2cc(COC(=O)Nc3ccc(F)cc3)c(=O)[nH]c12 [Example 6-1, N-(4-fluorophenyl)carbamic acid (8-butoxy-7-methoxy-2-oxo-1,2-dihydroquinoline-3-yl)methyl ester]
- Ki [3]: 703 nM
- Ki [1, 5]: 0.045 nM
- C/S (Ki central type receptors / Ki peripheral type receptors) [1]: 15612

Compound: CCCOc1c(OC)ccc2cc(C(=O)O)c(=O)[nH]c12 [Example 2-4, 7-methoxy-2-oxo-8-propoxy-1,2-dihydroquinoline-3-carboxylic acid]
- Ki [3]: 905 nM
- Ki [1, 5]: 0.032 nM
- C/S (Ki central type receptors / Ki peripheral type receptors) [1]: 28273

Compound: CCCCCOc1cc2cc(C(=O)O)c(=O)[nH]c2cc1OC [Example 2-5, 7-methoxy-2-oxo-6-pentyloxy-1,2-dihydroquinoline-3-carboxylic acid]
- Ki [3]: 434 nM
- Ki [1, 4]: 0.2 nM

Compound: CCCCCOc1cc2cc(C(=O)O)c(=O)n(C)c2cc1OC [Example 2-7, 1-methyl-7-methoxy-2-oxo-6-pentyloxy-1,2-dihydroquinoline-3-carboxylic acid]
- Ki [3]: 381 nM
- Ki [1, 4]: 0.42 nM
- C/S (Ki central type receptors / Ki peripheral type receptors) [1]: 908

Compound: CCOc1c(OC)ccc2cc(C(=O)NCCc3ccc(F)cc3)c(=O)[nH]c12 [Example 3-18, 8-ethoxy-7-methoxy-2-oxo-1,2-dihydroquinoline-3-carboxylic acid [2-(4-fluorophenyl)ethyl]amide]
- Ki [3]: 1750 nM
- Ki [1, 4]: 7.1 nM
- C/S (Ki central type receptors / Ki peripheral type receptors) [1]: 247

Compound: CCOc1c(OC)ccc2cc(CO)c(=O)[nH]c12 [Example 5-2, 8-ethoxy-3-hydroxymethyl-7-methoxy-2-oxo-1,2-dihydroquinoline]
- Ki [3]: 122 nM
- Ki [1, 5]: 0.055 nM
- C/S (Ki central type receptors / Ki peripheral type receptors) [1]: 2219
